From patent US20250340561A1, “QUINAZOLINE COMPOUND FOR INDUCING DEGRADATION OF G12D MUTANT KRAS PROTEIN” (Astellas Pharma Inc., priority 2021, published 2025) come the findings set out here.

Molecules are shown by their SMILES.

The target in this test is T1, KRAS G12D (Homo sapiens, UniProt P01116, G12D).
T1 construct: host or cells: AsPC-1 human pancreatic cancer cells
T1 sequence (P01116 1-188 isoform P01116-2 G12D): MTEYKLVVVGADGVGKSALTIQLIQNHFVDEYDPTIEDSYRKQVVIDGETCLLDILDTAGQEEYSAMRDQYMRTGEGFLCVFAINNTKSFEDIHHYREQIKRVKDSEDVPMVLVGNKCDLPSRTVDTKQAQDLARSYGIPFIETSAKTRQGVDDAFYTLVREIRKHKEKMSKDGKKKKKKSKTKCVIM
The test is described as follows: Test Example 1-2: KRAS degradation action in AsPC-1, Cell ELISA. The note with it: AsPC-1 cells, overnight treatment, corrected with β-actin, 0% = 10 μM Example No. 26 (Example No. 8 for Example Nos. 74 and 75). In kind it is cell-based. The protocol: Test Example 1-2: Evaluation of KRAS Degradation Action on Human G12D Mutant KRAS-Positive Pancreatic Cancer Line AsPC-1
The KRAS degradation action of test compounds was evaluated by measuring the expression levels of KRAS G12D by Cell ELISA.
[…] As for the cell culture conditions, a RPMI 1640 medium containing 10% fetal bovine serum was used in the presence of 5% CO2 at 37° C. The next day, the test compounds (10 points having final concentrations in the range of 10 μM to 0.3 nM), the compound of Example No. 26 (Example No. 8 for Example Nos. 74 and 75) of a final concentration of 10 μM as a positive control and DMSO, which was the solvent for the test compounds, as a negative control were diluted 500-fold with a fresh medium and were added at 20 μL per well. The cells were cultured overnight.
The next day, the culture supernatant was removed, and 4% paraformaldehyde phosphate buffer (from FUJIFILM Wako Pure Chemical Corporation) was added at 20 μL per well. The plate was allowed to stand for 30 minutes at room temperature to thus immobilize the cells. Then, the supernatant was removed, and 0.1% Triton X-100 (from Amersham Biosciences)-containing PBS was added at 20 μL per well. After allowing to stand for 10 minutes at room temperature, the supernatant was removed. PBS was added at 25 μL per well, and the supernatant was removed to thus wash each well. The washing was performed twice in total. Next, the supernatant was removed, and 0.5% sodium dodecyl sulfate (SDS; from Invitrogen)-containing PBS was added at 20 μL per well. After allowing to stand at room temperature for 10 minutes, the supernatant was removed by centrifugation (using a centrifugal dehydrator machine, the supernatant was removed by the same method hereinafter). PBS was added at 25 μL per well, and the supernatant was removed to thus wash each well. The washing was performed twice in total. The supernatant was removed by centrifugation, and a blocking solution (Intercept Blocking Buffer) was added at 20 μL per well. After allowing to stand for 30 minutes at room temperature, the supernatant was removed by centrifugation, and a solution obtained by diluting an anti-Ras (G12D Mutant Specific) antibody and an anti-3-actin antibody 1,000-fold with a blocking solution was added at 20 μL per well as a primary antibody. The plate was allowed to stand overnight at 4° C.
The next day, the plate was centrifuged to remove the supernatant. PBS was added at […], and the supernatant was removed to thus wash each well. The washing was performed twice in total. The supernatant was removed by centrifugation, and a solution obtained by diluting Donkey anti-Mouse IgG H&L (TRDye 680RD) (from Li—COR Biosciences) and Goat anti-Rabbit IgG H&L (IRDye 800CW) (from Li—COR Biosciences) 1,000-fold with a blocking solution was added at 20 μL per well as a secondary antibody. After allowing to stand for 1 hour at room temperature, the supernatant was removed. PBS was added at 25 μL per well, and the supernatant was removed to thus wash each well. The washing was performed twice in total. After removing the supernatant by centrifuging the plate, the plate was dried as it was with air at room temperature for 2 hours or more, and the 700-nm and 800-nm fluorescent signals were measured with Aerius (from LI-COR Biosciences).
With the signaling value at the time of addition of DMSO corrected with the signaling value of β-actin taken as 100% and with the signaling value at the time of addition of 10 μM of the compound of Example No. 26 taken as 0%, the 50% degradation values (DC50) of the amounts of KRAS were calculated by Sigmoid-Emax model nonlinear regression analysis. The molecular weights of the test compounds were calculated as the molecular weights of the trihydrochloride for Example No. 30, the tetrahydrochloride for Example No. 46 and the free forms forming no salt for the remaining Example Nos. The results for some test compounds of the formula (I) are shown in Table 2.
On to `Cc1ncsc1-c1ccc([C@H](CO)NC(=O)[C@@H]2C[C@@H](O)CN2C(=O)[C@H](C(C)C)n2cc(-c3ccc(COc4c(-c5c(C)c(F)cc6[nH]ncc56)c(C5CC5)cc5c(N6C[C@@H]7C[C@H]6CN7)nc(OCC6(CO)CCOCC6)nc45)cc3)nn2)cc1` (atropisomer, axis not shown) [Example 36], for which the DC50 came to 0.017 µM.
As for `Cc1ncsc1-c1ccc([C@H](CO)NC(=O)[C@@H]2C[C@@H](O)CN2C(=O)[C@H](C(C)C)n2cc(-c3ccc(COc4c(-c5c(C)c(F)cc6[nH]ncc56)c(C5CC5)cc5c(N6C[C@@H]7C[C@H]6CN7)nc(O[C@H](C)[C@@H](C)O)nc45)cc3)nn2)cc1` (atropisomer, axis not shown) [Example 37], the figure is 0.025 µM.
Compound `Cc1c(F)cc2[nH]ncc2c1-c1c(C2CC2)cc2c(N3C[C@@H]4C[C@H]3CN4)nc(OC3CCOCC3)nc2c1OCc1ccc(-c2cn([C@H](C(=O)N3C[C@H](O)C[C@H]3C(=O)N[C@@H](CO)c3ccccc3F)C(C)C)nn2)cc1` [Example 30] gave a DC50 of 0.157 µM.
In the case of `Cc1ncsc1-c1ccc([C@H](CO)NC(=O)[C@@H]2C[C@@H](O)CN2C(=O)[C@H](C(C)C)n2cc(-c3ccc(COc4c(-c5c(C)c(F)cc6[nH]ncc56)c(C5CC5)cc5c(N6C[C@@H]7C[C@H]6CN7)nc(O[C@H]6CCN(CCO)C6)nc45)cc3)nn2)cc1` [Example 31] it was 0.138 µM; in that of `COCCN1CC[C@H](Oc2nc(N3C[C@@H]4C[C@H]3CN4)c3cc(C4CC4)c(-c4c(C)c(F)cc5[nH]ncc45)c(OCc4ccc(-c5cn([C@H](C(=O)N6C[C@H](O)C[C@H]6C(=O)N[C@@H](CO)c6ccc(-c7scnc7C)cc6)C(C)C)nn5)cc4)c3n2)C1` [Example 32], 0.139 µM; in that of `Cc1ncsc1-c1ccc([C@H](CO)NC(=O)[C@@H]2C[C@@H](O)CN2C(=O)[C@H](C(C)C)n2cc(-c3ccc(COc4c(-c5c(C)c(F)cc6[nH]ncc56)c(C5CC5)cc5c(N6C[C@@H]7C[C@H]6CN7)nc(O[C@H]6CCN(CC(F)F)C6)nc45)cc3)nn2)cc1` [Example 33], 0.03 µM.
The compound `Cc1ncsc1-c1ccc([C@H](CO)NC(=O)[C@@H]2C[C@@H](O)CN2C(=O)[C@H](C(C)C)n2cc(-c3ccc(COc4c(-c5c(C)c(F)cc6[nH]ncc56)c(C5CC5)cc5c(N6C[C@@H]7C[C@H]6CN7)nc(O[C@@H]6CCN(CC(F)F)C6)nc45)cc3)nn2)cc1` [Example 34] had a DC50 of 0.024 µM.
Compound `Cc1ncsc1-c1ccc([C@H](CO)NC(=O)[C@@H]2C[C@@H](O)CN2C(=O)[C@H](C(C)C)n2cc(-c3ccc(COc4c(-c5c(C)c(F)cc6[nH]ncc56)c(C5CC5)cc5c(N6C[C@@H]7C[C@H]6CN7)nc(OC6CCOCC6)nc45)cc3)nn2)nc1` [Example 35] showed a DC50 of 0.084 µM. This DC50 is about 3.5-fold higher than that of the compound before.
As for `Cc1ncoc1-c1ccc([C@H](CO)NC(=O)[C@@H]2C[C@@H](O)CN2C(=O)[C@H](C(C)C)n2cc(-c3ccc(COc4c(-c5c(C)c(F)cc6[nH]ncc56)c(C5CC5)cc5c(N6C[C@@H]7C[C@H]6CN7)nc(OC6CCOCC6)nc45)cc3)nn2)cc1` [Example 38], the figure is 0.053 µM; as for `CO[C@H](C)[C@@H](C)Oc1nc(N2C[C@@H]3C[C@H]2CN3)c2cc(C3CC3)c(-c3c(C)c(F)cc4[nH]ncc34)c(OCc3ccc(-c4cn([C@H](C(=O)N5C[C@H](O)C[C@H]5C(=O)N[C@@H](CO)c5ccc(-c6scnc6C)cc5)C(C)C)nn4)cc3)c2n1` [Example 39], 0.006 µM.
As for `COC[C@@H](C)Oc1nc(N2C[C@@H]3C[C@H]2CN3)c2cc(C3CC3)c(-c3c(C)c(F)cc4[nH]ncc34)c(OCc3ccc(-c4cn([C@H](C(=O)N5C[C@H](O)C[C@H]5C(=O)N[C@@H](CO)c5ccc(-c6scnc6C)cc5)C(C)C)nn4)cc3)c2n1` [Example 40], the figure is 0.005 µM; as for `CO[C@@H](C)[C@H](C)Oc1nc(N2C[C@@H]3C[C@H]2CN3)c2cc(C3CC3)c(-c3c(C)c(F)cc4[nH]ncc34)c(OCc3ccc(-c4cn([C@H](C(=O)N5C[C@H](O)C[C@H]5C(=O)N[C@@H](CO)c5ccc(-c6scnc6C)cc5)C(C)C)nn4)cc3)c2n1` [Example 41], 0.009 µM.
The compound `Cc1ncsc1-c1ccc([C@H](CO)NC(=O)[C@@H]2C[C@@H](O)CN2C(=O)[C@H](C(C)C)n2cc(-c3ccc(COc4c(-c5c(C)c(F)cc6[nH]ncc56)c(C5CC5)cc5c(N6C[C@@H]7C[C@H]6CN7)nc(O[C@@H](C)[C@H](C)O)nc45)cc3)nn2)cc1` [Example 42] displayed a DC50 of 0.006 µM. The DC50 values of the last two compounds are within 1.5-fold of each other.
In the case of `CC[C@@H](C)Oc1nc(N2C[C@@H]3C[C@H]2CN3)c2cc(C3CC3)c(-c3c(C)c(F)cc4[nH]ncc34)c(OCc3ccc(-c4cn([C@H](C(=O)N5C[C@H](O)C[C@H]5C(=O)N[C@@H](CO)c5ccc(-c6scnc6C)cc5)C(C)C)nn4)cc3)c2n1` [Example 43] it was 0.01 µM.
Consider `Cc1ncsc1-c1ccc([C@H](CO)NC(=O)[C@@H]2C[C@@H](O)CN2C(=O)[C@H](C(C)C)n2cc(-c3ccc(COc4c(-c5c(C)c(F)cc6[nH]ncc56)c(C5CC5)cc5c(N6C[C@@H]7C[C@H]6CN7)nc(OCC67CCCN6CCC7)nc45)cc3)nn2)cc1` [Example 44], for which the DC50 was 0.111 µM.
As for `Cc1ncsc1-c1ccc([C@H](CO)NC(=O)[C@@H]2C[C@@H](O)CN2C(=O)[C@H](C(C)C)n2cc(-c3ccc(COc4c(-c5c(C)c(F)cc6[nH]ncc56)c(C5CC5)cc5c(N6C[C@@H]7C[C@H]6CN7)nc(O[C@H](C)CN6CCOCC6)nc45)cc3)nn2)cc1` [Example 45], the figure is 0.015 µM.
As for `Cc1ncsc1-c1ccc([C@H](CO)NC(=O)[C@@H]2C[C@@H](O)CN2C(=O)[C@H](C(C)C)n2cc(-c3ccc(COc4c(-c5c(C)c(F)cc6[nH]ncc56)c(C5CC5)cc5c(N6C[C@@H]7C[C@H]6CN7)nc(O[C@H](C)CN(C)C)nc45)cc3)nn2)cc1` [Example 46], the half-maximal degradation concentration (DC50) was 0.037 µM.
In the case of `CO[C@H](C)COc1nc(N2C[C@@H]3C[C@H]2CN3)c2cc(C3CC3)c(-c3c(C)c(F)cc4[nH]ncc34)c(OCc3ccc(-c4cn([C@H](C(=O)N5C[C@H](O)C[C@H]5C(=O)N[C@@H](CO)c5ccc(-c6scnc6C)cc5)C(C)C)nn4)cc3)c2n1` [Example 47] it was 0.013 µM; in that of `CO[C@@H](C)COc1nc(N2C[C@@H]3C[C@H]2CN3)c2cc(C3CC3)c(-c3c(C)c(F)cc4[nH]ncc34)c(OCc3ccc(-c4cn([C@H](C(=O)N5C[C@H](O)C[C@H]5C(=O)N[C@@H](CO)c5ccc(-c6scnc6C)cc5)C(C)C)nn4)cc3)c2n1` [Example 48], 0.004 µM; in that of `Cc1ncsc1-c1ccc([C@H](CO)NC(=O)[C@@H]2C[C@@H](O)CN2C(=O)[C@H](C(C)C)n2cc(-c3ccc(COc4c(-c5c(C)c(F)cc6[nH]ncc56)c(C5CC5)cc5c(N6C[C@@H]7C[C@H]6CN7)nc(OC6CCOCC6)nc45)cc3F)nn2)cc1` [Example 49, (4R)-1-[(2S)-2-(4-{4-[({6-cyclopropyl-4-[(1S,4S)-2,5-diazabicyclo[2.2.1]heptan-2-yl]-7-(6-fluoro-5-methyl-1H-indazol-4-yl)-2-[(oxan-4-yl)oxy]quinazolin-8-yl}oxy)methyl]-2-fluorophenyl}-1H-1,2,3-triazol-1-yl)-3-methylbutanoyl]-4-hydroxy-N-{(1R)-2-hydroxy-1-[4-(4-methyl-1,3-thiazol-5-yl)phenyl]ethyl}-L-prolinamide], 0.015 µM.
For the compound `Cc1ncsc1-c1ccc([C@H](CO)NC(=O)[C@@H]2C[C@@H](O)CN2C(=O)[C@H](C(C)C)n2cc(-c3ccc(COc4c(-c5c(C)c(F)cc6[nH]ncc56)c(C5CC5)cc5c(N6C[C@@H]7C[C@H]6CN7)nc(OC[C@@H]6CCOC6)nc45)cc3)nn2)cc1` [Example 50], the DC50 was determined as 0.011 µM. The DC50 values of the last two compounds are within 1.5-fold of each other.
